The values that follow come from US9169217B2, “Arylalkyl esters of 4-amino-6-(substituted phenyl)-picolinates and 6-amino-2-(substituted phenyl)-pyrimidinecarboxylates and their use as selective herbicides for crops” (Dow AgroSciences LLC, priority 2011, dated 2015).

Data set [1] relates to Scirpus juncoides ROXB. (Japanese bulrush). The data set can be described thus: Postemergence foliar-applied herbicidal activity in direct seeded rice (Example 16). The class given is in vivo. Conditions: Schoenoplectiella juncoides, post-emergence, 504 h; rice cropping systems, foliar-applied, 8.75 g ae/ha, 21 DAA; may represent multiple trials; read-out: Visual Injury (%) SCPJU. From the text: (§1) Seeds or nutlets of the desired test plant species were planted in a soil matrix prepared by mixing a loam soil (43 percent silt, 19 percent clay, and 38 percent sand, with a pH of about 8.1 and an organic matter content of about 1.5 percent) and river sand in an 80 to 20 ratio. The soil matrix was contained in plastic pots with a surface area of 139.7 cm^2. When required to ensure good germination and healthy plants, a fungicide treatment and/or other chemical or physical treatment was applied. The plants were grown for 10-17 d in a greenhouse with an approximate 14-h photoperiod which was maintained at about 29° C. during the day and 26° C. during the night. Nutrients and water were added on a regular basis and supplemental lighting was provided with overhead metal halide 1000-Watt lamps as necessary. The plants were employed for testing when they reached the second or third true leaf stage.
(§2) Treatments consisted of esters of compounds 1-4, 6-8, 10, 11, 13-16, 20-31, 35, 38, 41 and 42 and A-E. Compound A is methyl 4-amino-3-chloro-6-(4-chloro-3-ethoxy-2-fluorophenyl)-5-fluoropicolinate; compound B is methyl 4-amino-3-chloro-6-(4-cyclopropylphenyl)-5-fluoropicolinate; compound C is methyl 4-amino-3-chloro-6-(2,4-dichloro-3-methoxyphenyl)picolinate; compound D is methyl 6-amino-2-(4-chloro-2-fluoro-3-methoxyphenyl)-5-vinylpyrimidine-4-carboxylate; and compound E is methyl 4-amino-3-chloro-6-(4-chloro-2-fluoro-3-methoxyphenyl)-5-fluoropicolinate. Weighed amounts of technical grade compounds were placed in 25 mL glass vials and dissolved in a volume of 97:3 v/v acetone-DMSO to obtain 12× stock solutions. […] The concentrated stock solutions were added to the spray solutions so that the final acetone and DMSO concentrations were 16.2% and 0.5%, respectively. Spray solutions were diluted to the appropriate final concentrations with the addition of 10 mL of an aqueous mixture of 1.5% (v/v) Agri-dex crop oil concentrate. Generally, multiple concentrations of spray solutions were formulated and tested utilizing the same stock solution. The final spray solutions contained 1.25% (v/v) Agri-dex crop oil concentrate. Compound requirements are based upon a 12 mL application volume at a rate of 187 L/ha. Spray solutions were applied to the plant material with an overhead Mandel track sprayer equipped with 8002E nozzles calibrated to deliver 187 L/ha over an application area of 0.503 square meters (m^2) at a spray height of 18 inches (43 cm) above average plant canopy height. Control plants were sprayed in the same manner with the solvent blank.
(§3) The treated plants and control plants were placed in a greenhouse as described above and watered by sub-irrigation to prevent wash-off of the test compounds. After 3 weeks, the condition of the test plants, compared with that of the untreated plants, was determined visually and scored on a scale of 0 to 100 percent where 0 corresponds to no injury and 100 corresponds to complete kill.
(§4) By applying the well-accepted probit analysis as described by J. Berkson in Journal of the American Statistical […], 48, 565 (1953) and by D. Finney in “Probit Analysis” Cambridge University Press (1952), the data gathered can be used to calculate GR50 and GR80 values, which are defined as growth reduction factors that correspond to the effective dose of herbicide required to kill or control 50 percent or 80 percent, respectively, of a target plant.

Data set [2] has as its system Cyperus difformis L. (small-flower flatsedge). Described as above. Conditions: post-emergence, 504 h, rice cropping systems, foliar-applied, 8.75 g ae/ha, 21 DAA, may represent multiple trials, read-out: Visual Injury (%) CYPDI. The class given is in vivo.
Excerpt: as §1, §2, §3, §4

For data set [3], the system named is Scirpus juncoides ROXB. (Japanese bulrush). The data set can be described thus: In-water applied herbicidal activity in transplanted paddy rice (Example 17). It is filed as in vivo. Conditions: Schoenoplectiella juncoides, 504 h; rice cropping systems, in-water applied (paddy), 17.5 g ae/ha, 21 DAA; may represent multiple trials; read-out: Visual Injury (%) SCPJU. The protocol: (§5) Weed seeds or nutlets of the desired test plant species were planted in puddled soil (mud) prepared by mixing a non-sterilized mineral soil (28 percent silt, 18 percent clay, and 54 percent sand, with a pH of about 7.3 to 7.8 and an organic matter content of about 1.0 percent) and water at a ratio of 100 kilograms (kg) of soil to 19 liters (L) of water. The prepared mud was dispensed in 250 mL aliquots into 480 mL non-perforated plastic pots with a surface area of 91.6 cm^2 leaving a headspace of 3 cm in each pot. Rice seeds were planted in Sun Gro MetroMix 306 planting mixture, which typically has a pH of 6.0 to 6.8 and an organic matter content of about 30 percent, in plastic plug trays. Seedlings at the second or third leaf stage of growth were transplanted into 650 mL of mud contained in 960 mL non-perforated plastic pots with a surface area of 91.6 cm^2 four days prior to herbicide application. The paddy was created by filling the 3 cm headspace of the pots with water. When required to ensure good germination and healthy plants, a fungicide treatment and/or other chemical or physical treatment was applied. The plants were grown for 4-14 d in a greenhouse with an approximate 14-h photoperiod which was maintained at about 29° C. during the day and 26° C. during the night. Nutrients were added as Osmocote (17:6:10, Nitrogen:Phosphorus:Potassium (N:P:K)+minor nutrients) at 2 grams (g) per cup. Water was added on a regular basis to maintain the paddy flood, and supplemental lighting was provided with overhead metal halide 1000-Watt lamps as necessary. The plants were employed for testing when they reached the second or third true leaf stage.
(§6) Treatments consisted of esters of compounds 1-4, 6-33, 35-39, 41 and 42 and A-G. Compound A is methyl 4-amino-3-chloro-6-(4-chloro-3-ethoxy-2-fluorophenyl)-5-fluoropicolinate; compound B is methyl 4-amino-3-chloro-6-(4-cyclopropylphenyl)-5-fluoropicolinate; compound C is methyl 4-amino-3-chloro-6-(2,4-dichloro-3-methoxyphenyl)picolinate; compound D is methyl 6-amino-2-(4-chloro-2-fluoro-3-methoxyphenyl)-5-vinylpyrimidine-4-carboxylate; compound E is methyl 4-amino-3-chloro-6-(4-chloro-2-fluoro-3-methoxyphenyl)-5-fluoropicolinate; compound F is methyl 6-amino-2-(4-chloro-2-fluoro-3-methoxyphenyl)-5-methoxypyrimidine-4-carboxylate; and compound G is methyl 4-amino-3-chloro-6-(4-chloro-2-fluoro-3-methoxyphenyl)picolinate. Weighed amounts of technical grade compounds were placed in individual 120 mL glass vials and were dissolved in 20 mL of acetone to obtain concentrated stock solutions. […] The concentrated stock solutions obtained were diluted with 20 mL of an aqueous mixture containing 2.5% Agri-dex crop oil concentrate (v/v). The final application solutions contained 1.25% (v/v) Agri-dex crop oil concentrate. Generally, multiple concentrations were tested utilizing the same stock solution. Applications were made by injecting an appropriate amount of the application solution into the aqueous layer of the paddy. Control plants were treated in the same manner with the solvent blank.
(§7) The treated plants and control plants were placed in a greenhouse as described above and water was added as needed to maintain a paddy flood. After 3 weeks the condition of the test plants, compared with that of the untreated plants, was determined visually and scored on a scale of 0 to 100 percent where 0 corresponds to no injury and 100 corresponds to complete kill.
as §4

The test system of data set [4] is Echinochloa crus-galli (L.) P.BEAUV. (barnyardgrass). The data set is described as above. The class given is in vivo. Conditions: Echinochloa crus-galli, 504 h, rice cropping systems, in-water applied (paddy), 21 DAA, may represent multiple trials, read-out: Visual Injury (%) ECHCG; for pest or weed control at 17.5 g/ha: 17.5 g ae/ha; for pest or weed control at 35 g/ha: 35 g ae/ha. The protocol:
as §5, §6, §7, §4

As usually defined, the melting point is the temperature of the solid-liquid transition.

On to `COc1c(Cl)ccc(-c2nc(C(=O)OCc3ccc([N+](=O)[O-])cc3)c(Cl)c(N)c2F)c1F` [Compound 21], for which the melting point was in the range of 207 to 208 °C. In data set [1], the pest or weed control at 8.75 g/ha stood at 100%. Further, the pest or weed control at 8.75 g/ha in data set [2] came to 100%. In addition, the pest or weed control at 17.5 g/ha in data set [3] was found to be 80%. The pest or weed control at 17.5 g/ha in data set [4] is 10%.

As for `COc1cccc(COC(=O)c2nc(-c3ccc(Cl)c(OC)c3F)c(F)c(N)c2Cl)c1` [Compound 13], the melting point fell in the range of 164 to 165 °C. For the same molecule, the pest or weed control at 8.75 g/ha in data set [1] is 80%. The pest or weed control at 8.75 g/ha in data set [2] came to 95%. Besides, in data set [3], the pest or weed control at 17.5 g/ha turned out to be 98%. For the same molecule, in data set [4], the pest or weed control at 17.5 g/ha turned out to be 98%.

`COc1c(Cl)ccc(-c2nc(C(=O)OCc3ccc(Cl)cc3)c(Cl)c(N)c2F)c1F` [Compound 2, 4-chlorobenzyl 4-amino-3-chloro-6-(4-chloro-2-fluoro-3-methoxyphenyl)-5-fluoropicolinate] registered a melting point of 143 °C. The pest or weed control at 8.75 g/ha in data set [1] was found to be 100%. Moreover, in data set [2], the pest or weed control at 8.75 g/ha was determined as 100%. In data set [3], the pest or weed control at 17.5 g/ha stood at 99%. Moreover, the pest or weed control at 17.5 g/ha in data set [4] was found to be 97%.

In turn, `COc1c(Cl)ccc(-c2nc(C(=O)OCc3ccc(C(C)C)cc3)c(Cl)c(N)c2F)c1F` [Compound 27] had a melting point of 75 to 76 °C. Further, the pest or weed control at 8.75 g/ha in data set [1] was 100%. For the same molecule, in data set [2], the pest or weed control at 8.75 g/ha was 100%. For the same molecule, in data set [3], the pest or weed control at 17.5 g/ha was 80%. In data set [4], the pest or weed control at 17.5 g/ha is 10%.

Molecule `COc1c(Cl)ccc(-c2nc(C(=O)OCc3ccc(SC)cc3)c(Cl)c(N)c2F)c1F` [Compound 31] gave a melting point of 145 °C. Besides, the pest or weed control at 8.75 g/ha in data set [1] worked out at 100%. Moreover, in data set [2], the pest or weed control at 8.75 g/ha is 100%. Also, in data set [3], the pest or weed control at 17.5 g/ha turned out to be 85%. The pest or weed control at 17.5 g/ha in data set [4] was determined as 50%.

`COc1ccccc1COC(=O)c1nc(-c2ccc(Cl)c(OC)c2F)c(F)c(N)c1Cl` [Compound 10] yielded a melting point of 135 to 136 °C. Further, in data set [1], the pest or weed control at 8.75 g/ha is 91%. Also, the pest or weed control at 8.75 g/ha in data set [2] came to 100%. Besides, the pest or weed control at 17.5 g/ha in data set [3] was found to be 100%. In data set [4], the pest or weed control at 17.5 g/ha was 70%.

`COC(=O)c1ccccc1COC(=O)c1nc(-c2ccc(Cl)c(OC)c2F)c(F)c(N)c1Cl` [Compound 32] displayed a melting point of 161 °C. Besides, the pest or weed control at 17.5 g/ha in data set [3] came to 100%. Moreover, in data set [4], the pest or weed control at 17.5 g/ha was 60%.

Molecule `COc1c(Cl)ccc(-c2nc(C(=O)OCc3ccccc3F)c(Cl)c(N)c2F)c1F` [Compound 25] showed a melting point of 169 °C. Moreover, the pest or weed control at 8.75 g/ha in data set [1] stood at 100%. In data set [2], the pest or weed control at 8.75 g/ha is 100%. Further, the pest or weed control at 17.5 g/ha in data set [3] came out at 90%. Moreover, in data set [4], the pest or weed control at 17.5 g/ha came out at 10%.

Regarding `COc1c(Cl)ccc(-c2nc(C(=O)OC(C)c3ccccc3)c(Cl)c(N)c2F)c1F` (stereo not shown) [Compound 14], the pest or weed control at 8.75 g/ha in data set [1] was found to be 50%; in data set [2] it was 95%. Moreover, the pest or weed control at 17.5 g/ha in data set [3] amounted to 70%; in data set [4], 10%.

Regarding `COc1c(Cl)ccc(-c2nc(C(=O)OCc3cccc(Cl)c3)c(Cl)c(N)c2F)c1F` [Compound 12], the melting point lay within 147 to 148 °C. The pest or weed control at 17.5 g/ha in data set [3] came to 100%. The pest or weed control at 17.5 g/ha in data set [4] was 100%.

`COc1c(Cl)ccc(-c2cc(N)c(Cl)c(C(=O)OC(C)c3ccccc3)n2)c1F` (stereo not shown) [Compound 19] yielded a melting point of 110 to 113 °C. For the same molecule, the pest or weed control at 35 g/ha in data set [4] was 90%.

`COc1c(Cl)ccc(-c2nc(C(=O)OCc3ccccc3Cl)c(Cl)c(N)c2F)c1F` [Compound 9] yielded a melting point of 183 to 184 °C. For the same molecule, the pest or weed control at 17.5 g/ha in data set [3] is 100%. In addition, the pest or weed control at 17.5 g/ha in data set [4] was 100%.

Regarding `COc1c(Cl)ccc(-c2nc(C(=O)OCc3ccc(OC(F)(F)F)cc3)c(Cl)c(N)c2F)c1F` [Compound 20, 4-trifluoromethoxybenzyl 4-amino-3-chloro-6-(4-chloro-2-fluoro-3-methoxyphenyl)-5-fluoropicolinate], the pest or weed control at 8.75 g/ha in data set [1] and in data set [2] was 100% throughout. Besides, the values for the pest or weed control at 17.5 g/ha in data set [3] and in data set [4] were 0% and 50%, respectively.

Take `COc1c(Cl)ccc(-c2cc(N)c(Cl)c(C(=O)OCCc3ccccc3)n2)c1F` [Compound 37]: the pest or weed control at 35 g/ha in data set [4] was determined as 98%.

`COc1ccc(COC(=O)c2nc(-c3ccc(Cl)c(OC)c3F)c(F)c(N)c2Cl)cc1` [Compound 5] yielded a melting point of 183 to 184 °C.

The molecule `COc1c(Cl)ccc(-c2cc(N)c(Cl)c(C(=O)OCc3ccc(Cl)cc3)n2)c1F` [Compound 18] displayed a melting point of 100 to 108 °C. Besides, in data set [4], the pest or weed control at 35 g/ha came out at 100%.
